Organism: Rattus norvegicus
Assay: DrugMatrix - Regimen: Daily Repeat
Assay type: toxicity, organism-based, Sprague-Dawley
Design: regimen Daily Repeat, gender Male, age 6-8 weeks
Details: in vivo, sc, route subcutaneous, […]; for ABSOLUTE BASOPHIL / ABSOLUTE EOSINOPHIL / ABSOLUTE LYMPHOCYTE / ABSOLUTE MONOCYTE / ABSOLUTE SEGMENTED NEUTROPHIL / BASOPHIL / EOSINOPHIL / ERYTHROCYTE COUNT / HEMATOCRIT / LEUKOCYTE COUNT / MEAN CORPUSCULAR HEMOGLOBIN / MEAN CORPUSCULAR HEMOGLOBIN CONCENTRATION / MEAN CORPUSCULAR VOLUME / MONOCYTE / NEUTROPHIL / NUCLEATED RED BLOOD CELLS / PLATELET COUNT: tissue Blood; for ALANINE AMINOTRANSFERASE / ALBUMIN / ALKALINE PHOSPHATASE / ASPARTATE AMINOTRANSFERASE / BLOOD UREA NITROGEN / CHLORIDE / CHOLESTEROL / CREATINE PHOSPHOKINASE / CREATININE / GLUCOSE / LACTATE DEHYDROGENASE / LIPASE / PHOSPHORUS / POTASSIUM / TOTAL BILIRUBIN / URIC ACID: tissue Plasma
[1] = 0 mg/kg, 72 h, dose level Control, time 3 day
[2] = 0 mg/kg, 120 h, dose level Control, time 5 day
[3] = 79 mg/kg, 72 h, dose level High, time 3 day

In the case of `C[C@H]1C[C@H]2[C@@H]3CCC4=CC(=O)C=C[C@]4(C)[C@@]3(F)[C@@H](O)C[C@]2(C)[C@@]1(O)C(=O)CO` [BETAMETHASONE], the “ABSOLUTE BASOPHIL” value [1] is reported as 0 CELLS/uL, the “ABSOLUTE EOSINOPHIL” value [1] is reported as 0 CELLS/uL and the “ABSOLUTE LYMPHOCYTE” value [1] is reported as 10887 CELLS/uL. For the same compound, the “ABSOLUTE MONOCYTE” value [1] was 56 CELLS/uL, the “ABSOLUTE SEGMENTED NEUTROPHIL” value [1] was 1057 CELLS/uL and the BASOPHIL [1] was 0%. For the same compound, the EOSINOPHIL [1] was 0%, the “ERYTHROCYTE COUNT” value [1] was 5.31 x10E6/uL and the HEMATOCRIT [1] was 33.78%. The “LEUKOCYTE COUNT” value [1] was 12 x10E3/uL, the “MEAN CORPUSCULAR HEMOGLOBIN” value [1] was 25.25 pg and the “MEAN CORPUSCULAR HEMOGLOBIN CONCENTRATION” value [1] was 39.65 G/DL. The “MEAN CORPUSCULAR VOLUME” value [1] was 63.65 fL, the MONOCYTE [1] was 0.5% and the NEUTROPHIL [1] was 8.33%. For the same compound, the “NUCLEATED RED BLOOD CELLS” value [1] was 0 /100WBC, the “PLATELET COUNT” value [1] was 1142 x10E3/uL and the “ALANINE AMINOTRANSFERASE” value [1] was 57.17 u/L. The ALBUMIN [1] was 4.28 G/DL, the “ALKALINE PHOSPHATASE” value [1] was 425.83 u/L and the “ASPARTATE AMINOTRANSFERASE” value [1] was 93.83 u/L. The “BLOOD UREA NITROGEN” value [1] was 14.17 mg/dL, the CHLORIDE [1] was 100 MEQ/L and the CHOLESTEROL [1] was 70.33 mg/dL. For the same compound, the “CREATINE PHOSPHOKINASE” value [1] was 438.67 u/L, the CREATININE [1] was 0.19 mg/dL and the GLUCOSE [1] was 138.5 mg/dL. For the same compound, the “LACTATE DEHYDROGENASE” value [1] was 190.17 u/L, the LIPASE [1] was 9.83 u/L and the PHOSPHORUS [1] was 11.05 mg/dL. The POTASSIUM [1] was 6.59 MEQ/L, the “TOTAL BILIRUBIN” value [1] was 0.22 mg/dL and the “URIC ACID” value [1] was 1.3 mg/dL. The “ABSOLUTE BASOPHIL” value [2] was 0 CELLS/uL, the “ABSOLUTE EOSINOPHIL” value [2] was 91.17 CELLS/uL and the “ABSOLUTE LYMPHOCYTE” value [2] was 11847.67 CELLS/uL. For the same compound, the “ABSOLUTE MONOCYTE” value [2] was 172.83 CELLS/uL, the “ABSOLUTE SEGMENTED NEUTROPHIL” value [2] was 1105 CELLS/uL and the BASOPHIL [2] was 0%. For the same compound, the EOSINOPHIL [2] was 0.67%, the “ERYTHROCYTE COUNT” value [2] was 5.35 x10E6/uL and the HEMATOCRIT [2] was 33.65%. The “LEUKOCYTE COUNT” value [2] was 13.22 x10E3/uL, the “MEAN CORPUSCULAR HEMOGLOBIN” value [2] was 25.12 pg and the “MEAN CORPUSCULAR HEMOGLOBIN CONCENTRATION” value [2] was 39.9 G/DL. The “MEAN CORPUSCULAR VOLUME” value [2] was 63 fL, the MONOCYTE [2] was 1.33% and the NEUTROPHIL [2] was 8.17%. The “NUCLEATED RED BLOOD CELLS” value [2] was 0 /100WBC, the “PLATELET COUNT” value [2] was 1347.83 x10E3/uL and the “ALANINE AMINOTRANSFERASE” value [2] was 50 u/L. The ALBUMIN [2] was 4.1 G/DL, the “ALKALINE PHOSPHATASE” value [2] was 329.17 u/L and the “ASPARTATE AMINOTRANSFERASE” value [2] was 77.17 u/L. The “BLOOD UREA NITROGEN” value [2] was 16.83 mg/dL, the CHLORIDE [2] was 99.83 MEQ/L and the CHOLESTEROL [2] was 75.67 mg/dL. For the same compound, the “CREATINE PHOSPHOKINASE” value [2] was 295.83 u/L, the CREATININE [2] was 0.18 mg/dL and the GLUCOSE [2] was 156.33 mg/dL. For the same compound, the “LACTATE DEHYDROGENASE” value [2] was 166.83 u/L, the LIPASE [2] was 9.83 u/L and the PHOSPHORUS [2] was 12.18 mg/dL. The POTASSIUM [2] was 6.69 MEQ/L, the “TOTAL BILIRUBIN” value [2] was 0.22 mg/dL and the “URIC ACID” value [2] was 1.6 mg/dL. The “ABSOLUTE BASOPHIL” value [3] was 0 CELLS/uL, the “ABSOLUTE EOSINOPHIL” value [3] was 18 CELLS/uL and the “ABSOLUTE LYMPHOCYTE” value [3] was 1334 CELLS/uL. The “ABSOLUTE MONOCYTE” value [3] was 44 CELLS/uL, the “ABSOLUTE SEGMENTED NEUTROPHIL” value [3] was 3004 CELLS/uL and the BASOPHIL [3] was 0%. For the same compound, the EOSINOPHIL [3] was 0.33%, the “ERYTHROCYTE COUNT” value [3] was 5.69 x10E6/uL and the HEMATOCRIT [3] was 36.67%. For the same compound, the “LEUKOCYTE COUNT” value [3] was 4.4 x10E3/uL, the “MEAN CORPUSCULAR HEMOGLOBIN” value [3] was 25.27 pg and the “MEAN CORPUSCULAR HEMOGLOBIN CONCENTRATION” value [3] was 39.2 G/DL. The “MEAN CORPUSCULAR VOLUME” value [3] was 64.47 fL, the MONOCYTE [3] was 1% and the NEUTROPHIL [3] was 69%. The “NUCLEATED RED BLOOD CELLS” value [3] was 0 /100WBC, the “PLATELET COUNT” value [3] was 1406 x10E3/uL and the “ALANINE AMINOTRANSFERASE” value [3] was 146.33 u/L. The ALBUMIN [3] was 5.37 G/DL, the “ALKALINE PHOSPHATASE” value [3] was 302 u/L and the “ASPARTATE AMINOTRANSFERASE” value [3] was 178 u/L. The “BLOOD UREA NITROGEN” value [3] was 25 mg/dL, the CHLORIDE [3] was 96.67 MEQ/L and the CHOLESTEROL [3] was 124.33 mg/dL. The “CREATINE PHOSPHOKINASE” value [3] was 219.33 u/L, the CREATININE [3] was 0.27 mg/dL and the GLUCOSE [3] was 443 mg/dL. For the same compound, the “LACTATE DEHYDROGENASE” value [3] was 492.67 u/L, the LIPASE [3] was 12.67 u/L and the PHOSPHORUS [3] was 11.8 mg/dL. The POTASSIUM [3] was 6.32 MEQ/L, the “TOTAL BILIRUBIN” value [3] was 0.2 mg/dL and the “URIC ACID” value [3] was 1.43 mg/dL.

Source: ChEMBL document CHEMBL3885881, “DrugMatrix”
